Series [1] relates to monocot embryogenic cell culture. Put plainly: Transfer of culture from auxin plus cytokinin medium to medium with cytokinin only. The following applies: medium without auxin but maintaining the cytokinin. It is filed as cell-based. As for the experimental part:
As known to those of skill in the art, cytokinins, both natural and synthetic, are used to induce shoot formation while inhibiting root formation (Trigiano and Gray, Plant tissue culture concepts and laboratory exercises. Second ed., Boca Raton: CRC Press (2000)).
In one embodiment, the tertiary medium is prepared by adding to sterile water (a) the cytokinin, thidiazuron; (b) sucrose, 30 g/l; (c) Miller's salt solution (6% w/v, KH2 PO4), about 3 ml; and (d) MS salts, 4.3 g/l. In one embodiment the concentration of the thidiazuron is from about 0.01 mg/l to about 1 mg/l. In another embodiment, the concentration of the thidiazuron is about 0.02 mg/l.

Series [2] relates to Arundo donax explants (cross-sectional segments of immature inflorescence). In words: Phosphinothricin selection of explants on primary solid culture medium. It is filed as cell-based. The following applies: 10 mg/L, four weeks selection, FIG. 6A. As for the experimental part:
Agrobacterium tumefaciens carrying the plasmid, pMSF3022, was used to transform Arundo donax explants (cross-sectional segments of immature inflorescence). Plasmid pMSF3022 carries the bar gene that confers resistance to phosphinothricin and provides a positive selection and the gfp (green fluorescent protein) gene which provides a visual selection of transformants. Antibiotic resistant transformants were selected for four weeks after gene transfer by incubating the explants on primary solid culture medium with or without phosphinothricin and containing ticarcillin at […] concentration to eliminate residual Agrobacterium. As shown in FIG. 6A control explants (untransformed) were killed by 10 mg/L of phosphinothricin (antibiotic/herbicide). In the absence of the antibiotic/herbicide, the control explants develop embryogenic callus (FIG. 6B). In contrast, the explants that were cocultivated with the A. tumefaciens carrying the plasmid, pMSF3022 (transformed), were able to develop embryogenic callus in the presence of 10 mg/L of phosphinothricin (FIG. 6C).

Each structure is given as a SMILES string.

With `O=C(Nc1ccccc1)Nc1cnns1` [thidiazuron], in series [1], the “effect on shoot elongation and root formation” value is listed as “not only was shoot elongation promoted but unexpectedly root formation also resulted”. Take `CP(=O)(O)CC[C@H](N)C(=O)O` [phosphinothricin]: the “effect on control (untransformed) explants” value in series [2] is on record as “killed”.

Source of the values: US8105835B2, “Method for micropropagation of monocots based on sustained totipotent cell cultures” (The University of South Carolina, priority 2007, dated 2012).
